Source: PubChem BioAssay (NCI)
Values joined by “and” are separate entries in the source; they are usually repeats but may differ in a detail not shown here. Equal values may be shown once.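 Briefly, cells in 96-well plates were exposed to five compound concentrations for 48 h, and endpoints were estimated by linear interpolation. At the GI50, growth is halved. At the TGI there is no net growth.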

Tests used:
Assay in all cases: NCI anticancer screen, dose series, 48 h
[1] = test system: HOP-92 NSCLC
[2] = test system: NCI-H460 lung
[3] = test system: SF-268 CNS
[4] = test system: SF-539 CNS
[5] = test system: 786-0 renal
[6] = test system: BT-549 breast
[7] = test system: PC-3 prostate
[8] = test system: KM12 colon

| SMILES | GI50 [1] [µM] | TGI [1] [µM] | GI50 [2] [µM] | TGI [2] [µM] | GI50 [3] [µM] | TGI [3] [µM] | GI50 [4] [µM] | TGI [4] [µM] | GI50 [5] | TGI [5] [µM] | GI50 [6] [µM] | TGI [6] [µM] | GI50 [7] [µM] | TGI [7] [µM] | GI50 [8] [µM] | TGI [8] [µM] |
| --- | --- | --- | --- | --- | --- | --- | --- | --- | --- | --- | --- | --- | --- | --- | --- | --- |
| O=c1[nH]c(=O)c2cc3cc(C4CC(O)C(CO)O4)ccc3cc2[nH]1 (stereo unspecified) | > 100 | > 100 | > 100 | > 100 | > 100 | > 100 | > 100 | > 100 | > 100 µM | > 100 | > 100 | > 100 | > 100 | > 100 | – | – |
| COc1ccc(Nc2cc(C)nc(NCc3ccccc3)n2)cc1 | 1.19 | 6.43 | 4.09 | 17.6 | 13.1 | 36.3 | 4.24 | 16.7 | 3.49 µM | 17.6 | 4.42 | 17.7 | 3.25 | 19 | 6.2 | 21.9 |
| [Cl][Hg][c]1ccc(Cl)s1 | 1.67 | 3.11 | 8.9 | 35.7 | 3.48 | 13.3 | 2.03 | 4.46 | 1.29 µM | 2.61 | 2.11 | 5.21 | 5.62 | 16.2 | 14.3 | 28 |
| C=C1C(=O)O[C@H]2[C@H]1CC/C(C=Nc1c(N)cc(C(F)(F)F)cc1C(F)(F)F)=C\CC[C@@]1(C)O[C@@H]21 | 1.22 | 3.09 | 1.53 | 3.38 | 1.55 | 3.82 | – | – | 2.04 µM | 4.11 | 1.47 | 3.17 | 1.54 | 4.4 | 1.99 | 4.74 |
| Cn1nc(C(F)(F)F)cc1-c1c[nH]c(OCc2ccc(Cl)cc2)c(-c2ccc(Cl)c(C(F)(F)F)c2)c1=O | 0.224 | 1.54 | 0.944 | 5 | 1.08 | > 23.8 | 1.24 | 3.96 | 1.25 µM | 4.37 | 1.04 | 3.31 | 0.756 | 4.32 | 1.26 | 4.86 |
| CCNC(=O)Nc1ccc(Oc2ccnc3ccc4c(ccn4C)c23)cc1 | 45.5 | > 100 | 25 | > 100 | 50.7 | > 100 | 23.6 | 85.1 | 35.5 µM | 96.7 | 56.3 | > 100 | > 100 | > 100 | 37.7 | > 100 |
| N#Cc1c(N)n2c(nc1=Nc1ccc(Cl)cc1)sc1cc(Cl)ccc12 | – | – | 22 | > 100 | 4.08 | > 100 | 8.7 | > 100 | 5.46 µM and 2.5 µM | 5.03 | 24.8 | > 100 | 4.65 | – | 3.22 | – |
| c1ccc2cc(NCNc3ccc4ccccc4c3)ccc2c1 | – | 26.6 | – | 28.9 | – | > 100 | – | 71.3 | – | 40.8 | – | 53.2 | – | > 58.3 | – | 38.7 |
| CN(C)CCCCC(C(=O)CBr)(c1ccccc1)c1ccccc1 | 1.84 | 4.71 | 6.36 | 23 | 3.89 | 15.8 | 2.57 | 6.84 | 2.12 µM | 4.37 | 1.48 | 3.47 | 2.71 | 9.58 | 7.57 | 20.7 |
| CCc1nc(N)nc(N)c1-c1ccc2nnn(O)c2c1 | – | > 100 | – | > 100 | – | > 100 | – | > 100 | – | > 100 | – | > 100 | – | > 100 | – | > 100 |
| N#C[Se]CCN1C(=O)C2C(C1=O)[C@H]1C=C[C@@H]2S1 (stereo partly specified) | 1.88 | 3.94 | 1.93 | 6.77 | 1.95 | 3.86 | 1.69 | 3.18 | 1.97 µM | 3.68 | 1.74 | 3.38 | 2.11 | 5.9 | 2.32 | 5.38 |
| CC[C@@H](C(=O)[C@H](C)[C@H](O)[C@@H](C)[C@H]1O[C@H]([C@@H](CC)C(=O)N(CC)CC)CC[C@H]1C)C1O[C@]2(C=C[C@@H](O)[C@]3(CC[C@@](C)([C@H]4CC[C@](O)(CC)[C@H](C)O4)O3)O2)[C@H](C)C[C@@H]1C (stereo partly specified) | 1.45 | 5.43 | 2.61 | 7.3 | 3.6 | 19.3 | 3.01 | 10.5 | 3.55 µM | 17.5 | 3.33 | 14.8 | 2.54 | 11.9 | 2.53 | 7.03 |
| CONC(C)=O | – | – | – | > 100 | – | > 100 | – | > 100 | – | > 100 | – | > 100 | – | > 100 | – | > 100 |
| CCOC(=O)Nc1nc2ccc(Br)cc2s1 | > 50 | > 50 | > 50 | > 50 | > 50 | > 50 | > 50 | > 50 | > 50 µM | > 50 | > 50 | > 50 | > 50 | > 50 | > 50 | > 50 |
| C=C1C(=O)O[C@H]2C[C@@H]1CC/C(C)=C/CC/C(C)=C/CC[C@@]2(C)O | 19.5 | 42.7 | > 100 | > 100 | > 100 | > 100 | 24.9 | 59.3 | 43.4 µM | > 100 | 24.2 | 59.9 | 29.9 | 95 | > 100 | > 100 |
| COc1ccc(Cn2cc3c(c2-c2ccccc2)CCc2cnoc2-3)cc1OC | 1.98 | > 100 | 0.457 | > 100 | 3.68 | > 100 | 1.02 | 5.6 | 2.24 µM | > 100 | – | – | 3.08 | > 100 | 0.487 | > 100 |
